Columns and labels:
Assay type in all cases: cell-based
[1] = test system: rat FAS luciferase reporter; test: Transfection and luciferase assay with rat FAS promoter reporter in COS-1 cells co-transfected with RXRα and LXRα; conditions: COS-1 cells with RXRα and LXRα expression vectors; 1 μM T0901317 or 10 μM 22-HC for 48 h; vs unstimulated control cells
Protocol: FIG. 6. […] COS-1 cells were transient transfected with rat FAS luciferase reporter and co-transfected with β-galactosidase (internal control), RXRα and LXRα expression vectors. Medium was supplied with vehicle (0.1% DMSO), 1 μM T0901317, 10 μM 22-R-hydroxycholesterol (22-R-HC) or 10 μM 22-S— hydroxycholesterol (22-S-HC) for 48 h. The results represent one of two experiments performed with triplicate cell culture dishes and are presented as means±SD.
Transfection and Luciferase Assay. Monkey kidney COS-1 cells (ATCC no. CRL 1650) were grown in DMEM supplemented with 10% FBS. For reporter gene assays, COS-1 cells were transiently transfected with luciferase reporter containing sequences from −1594 to +67 bp of the rat FAS promoter (5 μg), with a known LXR responsive element (LXRE) located at −669 to −655 (kindly provided by Peter Tontonoz, Howard Hughes Medical Institute, California, USA) and co-transfected with pCMX-RXRα, pCMX-LXRα, (1 μg each), and pSV-β-galactosidase (3 μg) expression vectors with calcium phosphate precipitation. Total DNA concentration was adjusted to 12 μg with corresponding empty expression vectors and pGL3-basic vector. After 3 h of transfection, medium containing appropriate reagents was added for 48 h. Cells were harvested in 100 μl lysis buffer, and luciferase activities were measured in a TD-20/20 Luminometer (Turner Designs, Sunnyvale, Calif.) using the dual luciferase assay kit (Promega). Relative luciferase activity was normalized against β-galactosidase activity.

human myotubes [2] = test: Glucose uptake (2-deoxy-D-glucose) in myotubes; conditions: for basal glucose uptake, increase: myotubes from young, healthy subjects, exposure for 4 days, 1 μmol/l T0901317 or 10 μmol/l 22-HC
Text: FIG. 7. Glucose transport is increased in human myotubes after chronic 22-S-HC treatment. Human myoblasts were allowed to differentiate for 2 days, and then exposed to 1 μmol/1 T0901317, 10 μmol/[…]) or 1, 2, 5 and 10 μmol/1 22-S-HC(S-HC) for 4 days. […] (A) Present means for glucose uptake±SEM (n=4). Basal level for control are 1.20±0.24 nmol/mg cell protein. (B) A representative dose-response curve for glucose uptake after 1, 2, 5 and 10 μmol/l 22-S-HC treatment (n=3). (C) Total RNA were reversely transcribed and analyzed by Real-Time RT-PCR. Results are normalized to levels of 36B4 and present means±SEM (n=4-6). Relative expressions of GLUT1, GLUT3, GLUT4, and hexokinase (HK)II, ^ap<0.05 vs control, ^dp<0.05 vs T0901317. Glucose Uptake. Skeletal biopsies were taken from M.vastus lateralis of healthy human donors and human myoblasts were allowed to differentiate for 4 days. On day 4, myotubes were exposed to T0901317 or 22-R-HC or 22-S-HC for another 4 days. […] Cells were solubilized by addition of 500 μl 0.1 mol/l NaOH. An aliquot (50 μl) was removed for protein determination (Bradford 1976) 300 μl was counted by liquid scintillation ([…] and Beck-Nielsen 2004).

human myotubes [3] = test: Palmitate uptake and lipid distribution: TAG synthesis from [1-14C]palmitic acid in myotubes
Protocol: FIG. 3. 22-hydroxycholesterols influence TAG synthesis from palmitic acid differently than T0901317. Human myoblasts were allowed to differentiate for 2 days, and then exposed to vehicle (0.1% DMSO), 1 μM T0901317, or 10 μM 22-S-hydroxycholesterol (22-S-HC) for 4 days. Differentiated myotubes were then incubated with [1-^14C]PA (0.5 μCi/ml, 0.1 mM) for 4 h before triacylglycerol (TAG) levels were determined. Results present means±SEM (n=4; independent muscle cell donors). *p<0.05 vs control, **p<0.05 vs all other treatments.
Human skeletal muscle cell cultures. A cell bank of satellite cells was established from muscle biopsy samples of the M. vastus lateralis of 6 healthy volunteers, age 25.7 years (±1.4), with BMI 21.6 (±1.0) and fasting glucose and insulin within normal range. The biopsies were obtained with informed consent and by approval of the National Committee for Research Ethics, Oslo, Norway. Muscle cell cultures free of fibroblasts were established by the method of Henry et al. (Diabetes, 44, 936-946, 1995), with minor modifications. Briefly, muscle tissue was dissected in Ham's F-10 media at 4° C., dissociated by three successive treatments with 0.05% trypsin/EDTA, and satellite cells were re-suspended in SkGM with 2% FCS and no added insulin. The cells were grown on culture wells coated with ECM gel (Apmis, 109, 726-734, 2001). At about 80% confluence, fusion of myoblasts into multinucleated myotubes was achieved by growth in DMEM with 2% FCS. All cells used were at passage 4 to 6. […]
Palmitate uptake and lipid distribution. […] The radioactivity in the cell fraction (20 μl) was quantified by liquid scintillation (Packard Tri-Carb 1900 TR) (Gaster et al, Diabetes, 53, 542-548, 2004). The protein content of each sample was determined (Bradford, Anal. Biochem., 72, 248-254, 1976), and triacylglycerol (TAG) was extracted (Gaster et al, supra). Briefly, the homogenized cell fraction (220 μl) was extracted, lipids separated by thin-layer chromatography and the radioactivity was quantified by liquid scintillation.

| Compound | rat FAS promoter luciferase reporter activity [1] | basal glucose uptake, increase (human myotubes [2]) | glucose uptake after pre-treatment of myotubes (summary statement) (human myotubes [2]) | synthesis of TAG compared to T0901317 treatment (human myotubes [3]; 10 μM for 4 days vs 1 μM T0901317) | reduction in incorporation of labeled palmitate into TAG (human myotubes [3]; 10 μM for 4 days, compared to control myotubes) | basal glucose uptake, dose response (human myotubes [2]; 0, 1.0, 2.0, 5.0 and 10 μmol/l for 4 days) | TAG synthesis from labeled palmitate (human myotubes [3]; 1 μM T0901317 for 4 days, [1-14C]PA 4 h, vs control) |
| --- | --- | --- | --- | --- | --- | --- | --- |
| CC(C)CC[C@@H](O)[C@@H](C)[C@H]1CC[C@H]2[C@@H]3CC=C4C[C@@H](O)CC[C@]4(C)[C@H]3CC[C@]12C [Example 22-R-HC, 22-R-hydroxycholesterol] | unable to regulate the FAS gene promoter | tended to increase | only a slight or no significant effect |  |  |  |  |
| CC(C)CC[C@H](O)[C@@H](C)[C@H]1CC[C@H]2[C@@H]3CC=C4C[C@@H](O)CC[C@]4(C)[C@H]3CC[C@]12C [Example 22-S-HC, 22-S-hydroxycholesterol] | seemed to reduce reporter activity | 2 fold | marked stimulation | significantly reduced | 50% | increased in a dose—dependent manner |  |
| O=S(=O)(c1ccccc1)N(CC(F)(F)F)c1ccc(C(O)(C(F)(F)F)C(F)(F)F)cc1 [Example T0901317] | 6.5 fold | no effect | only a slight or no significant effect |  |  |  | increased |

Reference: patent US20100137266A1, “TREATMENT OF INSULIN RESISTANCE AND DISORDERS ASSOCIATED THEREWITH” (UNIVERSITETET I OSLO, priority 2006, published 2010)
